The nature of one series: in vivo. Conditions: mouse, ip, 10 mg/kg. Also noted: species or system mice. How it is done:
Female CD-I mice were injected ip with 10 mg/kg of the three polymorphs of the compound of Formula I (CDDO ethyl) and methyl 2-cyano-3,12-dioxoIeana-1,9(11)-dien-28-oate (CDDO methyl) in DMSO-cremphor-PBS (1:1:8 weight by weight or volum by volum). Blood samples were collected at 0.083, 0.25, 0.5, 1, 2, 4, 8, and 24 hr post-dose. The levels were quantified by HPLC/MS using compound add to control blood for standard. PK results are shown at Table 3. The systemic exposure of the three polymorphs of the compound of Formula I of CDDO ethyl is higher than that of CDD) methyl. Following is the order: The glassy solid form of CDDO ethyl>Crystalline Form II of CDDO ethyl>Crystalline Form I of CDDO ethyl>CDDO Methyl

The nature of series [1]: Stability determination of polymorphs (XRD) at 25° C./60% R.H. and 40° C./75% R.H. Format: physicochemical. Here is the method: Other polymorphs of this invention were used similar in the study.
The glassy solid Form of the compound of Formula I, prepared as described in Example 4, was test at 25° C./60% R.H. and 40° C./75% R.H for one week.

For series [2], the system named is NO production induced by IFN-g in mouse macrophages (RAW 264.7 cells). Kind of series: Measurement of NO in RAW 264.7 cells induced by IFN-γ. Format: cell-based. Conditions: RAW264.7 cells, 10 ng/ml IFN-γ, 48 hours. How it is done: Assay Protocol Procedures
1 Maintained RAW264.7 cells in DMEM with 10% FBS at 37° C., 5% CO2.
Induction of NO in RAW264.7 Cells
1. The cells were seeded at 1×10^5/well onto 96-well cell culture plate.
2. After incubation for 2 hours at 37° C. under 5% CO2, the nonadherent cells were removed by aspiration and freshly prepared complete medium with 10 ng/ml IFN-γ and dilluted compounds was added.
3. Incubated the cells at 37° C. under 5% CO2 for another 48 hours.
Measurement of NO in RAW Cells
1. Centrifuged at 1000 rpm for 5 minutes to collect supernatant medium.
2. Prepared 1 ml of a 100 μM nitrite solution by diluting the provided 0.1 M Nitrite Standard 1:1,000 in the matrix or buffer used for the experimental samples.
4. Allowed the Sulfanilamide Solution and NED Solution to equilibrate to room temperature (15-30 minutes).
5. Added 50 μl of each experimental sample to wells in duplicate.
6. Used a multichannel pipettor to dispense 50 μl of the Sulfanilamide Solution to all experimental samples and wells containing the dilution series for the Nitrite Standard.
7. […]
10. Measured absorbance within 30 minutes in a plate reader with a filter between 520 nm and 550 nm.
The inhibitory activities [as measured by the IC50 (nM) value] of Crystalline Form II of the compound of Formula I (CDDO ethyl ester) on NO production induced by IFN-g in mouse macrophages 17 are shown in FIG. 5.

[3] abbreviates: 25° C./60% R.H. and 40° C./75% R.H.

This is an account of results in patent US9656951B2, “Polymorphs of CDDO ethyl ester and uses thereof” (Applied Pharmaceutical Science, Inc., priority 2012, dated 2017).

Regarding “ethyl 2-cyano-3,12-dioxoIeana-1,9(11)-dien-28-oate [Crystalline Form II of CDDO ethyl]”, in the series “in vivo”, the AUCInf amounted to 3840 ng·h/mL, the AUClast was found to be 3443 ng·h/mL, the maximum concentration (Cmax) turned out to be 482 ng/mL and the t1/2 was determined as 7.3 h. In “in vivo”, this molecule showed a tmax of 0.8 h. Further, in series [1] (setting [3]), the “change of XRD on storage” value is on record as “no significant change of XRD” and the “thermodynamic stability compared to other polymorphs” value is given as “most thermodynamically stable crystal form”. Also, the half-inhibitory concentration (IC50) in series [2] (listed as Crystalline Form II of the compound of Formula I (CDDO ethyl ester)) was 34 nM.
In the series “in vivo”, “ethyl 2-cyano-3,12-dioxoIeana-1,9(11)-dien-28-oate [Crystalline Form I of CDDO ethyl]” registered an AUCInf of 3456 ng·h/mL, an AUClast of 3221 ng·h/mL, a Cmax of 466 ng/mL and a t1/2 of 8.3 h. The same molecule returned a tmax in “in vivo” of 0.8 h.
In the case of “ethyl 2-cyano-3,12-dioxoIeana-1,9(11)-dien-28-oate [The glassy solid form of CDDO ethyl]”, in the series “in vivo”, the AUCInf amounted to 7526 ng·h/mL, the AUClast stood at 4721 ng·h/mL, the highest concentration (Cmax) came to 513 ng/mL and the t1/2 amounted to 16.1 h. In the series “in vivo”, this molecule came in with a tmax of 0.8 h. Besides, the “change of XRD on storage” value in series [1] (25° C./60% R.H. and 40° C./75% R.H for one week) is on record as “no significant change of XRD”. Besides, the IC50 in series [2] (listed as glassy solid form of the compound of Formula I (CDDO ethyl ester)) is 32 nM.
For the molecule `COC(=O)[C@]12CCC(C)(C)C[C@H]1[C@H]1C(=O)C=C3[C@@]4(C)C=C(C#N)C(=O)C(C)(C)[C@@H]4CC[C@@]3(C)[C@]1(C)CC2` [CDDO Methyl Ester, methyl 2-cyano-3,12-dioxoIeana-1,9(11)-dien-28-oate, reference compound], in “in vivo” (female, CD-I), the AUC(0-inf) came out at 1970 ng·h/mL, the AUC(0-t) stood at 1800 ng·h/mL, the peak level (Cmax) was 363 ng/mL and the half-life was 6.6 h. The tmax in the series “in vivo” (female, CD-I) came out at 0.8 h.

In general, Cmax refers to the maximum level reached in the sampled fluid or tissue. Usually IC50 stands for the concentration that gives 50% inhibition. As usually defined, the AUC(0-inf) is total exposure, with the tail of the curve extrapolated. Higher therefore signals more exposure. As a reminder, the AUC(0-t) is the area under the concentration-time curve up to a stated or last time point. High values mean high exposure, low ones low exposure. What is called half-life is how long it takes for the measured level to halve. Read a low half-life as rapid decline.
